Experimental data taken from article PMC2375353, “Effective treatment of experimental U-87MG human glioblastoma in nude mice with a targeted cytotoxic bombesin analogue, AN-215” (British Journal of Cancer, 2002).
“Also recorded” adds a separate entry of the source.

Columns and labels:
[1] = biological target: BN/GRP receptor on U-87MG tumour membranes; experiment: Displacement of 125I-[Tyr4]BN binding (radioreceptor assay) on U-87MG tumour membranes; set-up: species or system human
Description: (§1) Binding characteristics of BN receptors on membrane preparations from U-87MG tumours were determined by ligand competition assays using ^125I-labelled [Tyr^4]BN, as reported earlier ([Halmos and Schally, 1997]). […] IC50 value was calculated with a computerized curve fitting programme and is defined as the concentration of AN-215 causing a 50% inhibition of ^125I-[Tyr^4]BN binding.

[2] = test system: BN receptors on membrane preparations from U-87MG tumours; experiment: 125I-[Tyr4]BN binding characteristics (Kd, Bmax) of BN receptors on U-87MG tumour membranes; set-up: species or system human; conditions: AN-215-treated vs control
Description: as §1

[3] = test system: H-69 human small-cell lung carcinoma; conditions: ref Kiaris et al, 1999a; cited from earlier work
Description: (§2) Current treatment options for malignant gliomas, including surgery, radiation, and chemotherapy, are of limited effectiveness, and novel therapeutic modalities must be explored. Targeting of antineoplastic agents to cancer cells by linking them to a ligand with high affinity for tumour cells should improve tumour growth inhibition and decrease peripheral toxicity ([Schally and Nagy, 1999]). The presence of high affinity receptors for bombesin (BN)-like peptides on a wide variety of tumours prompted us to employ some of our powerful BN/gastrin releasing peptide (GRP) antagonists as carrier mole ...

[4] = test system: PC-3 human androgen-independent prostate cancer; conditions: ref Plonowski et al, 2000; cited from earlier work
Description: as §2

[5] = test system: BN receptors on Swiss 3T3 fibroblasts; conditions: ref Nagy et al, 1997; cited from earlier work
Description: as §2

[6] = test system: U-87MG human glioblastoma xenografted into nude mice; experiment: Experiment 2: growth of s.c. U-87MG xenografts, with BN receptor blockade; format: in vivo, human tumour in male athymic nude mice
Description: Human glioblastoma cell line U-87MG was obtained from American Type Culture Collection (Manassas, VA, USA) and cultured as described ([Pinski et al, 1994]). Male athymic (Ncr nu/nu) nude mice, approximately 6-weeks-old on arrival, were obtained from the National Cancer Institute (Frederick Cancer Research and Development Center, Frederick, MD, USA), and housed in laminar air-flow cabinets under pathogen-free conditions with a 12 h light/12 h dark schedule, and fed autoclaved standard chow and water ad libitum. Xenografts were initiated by s.c. injection of 12×10^6 U-87MG cells into the right flanks of five male nude mice. Tumours resulting after 2 weeks were aseptically dissected, mechanically minced, and 3-mm^3 pieces of tumour tissue were transplanted s.c. with a trocar needle. The take rate was 100%. All experiments were performed in accordance with institutional ethical guidelines of animal care and were essentially in agreement with [UKCCCR guidelines (1998)] for the welfare of animals in experimental neoplasia.
Experiment 2 was started when U-87MG tumours had grown to 70–84 mm^3 in volume. The animals were divided into the following treatment groups: group 1 (10 mice), control, vehicle solution; group 2 (10 mice), analogue AN-215; group 3 (five mice), unconjugated mixture of the cytotoxic radical AN-201 and BN antagonist RC-3095. All compounds were injected i.v. at 150 nmol kg^−1 of BW on days 1, 10, and 17. In addition, one group of tumour-bearing mice received an i.v. injection of 200 μg of BN antagonist RC-3095 15 min before each administration of AN-215 at a dose of 150 nmol kg^−1 of BW on days 1, 10 and 17 as in the case of group 2. The experiment was terminated on day 20 as described above.
Data are expressed as mean±s.e. Differences between mean values were evaluated by two-tailed Student's t-test, P<0.05 being considered significant.

[7] = set-up: method as in 2 sources, one per row (each row's own in cited_ref): ref Nagy et al, 1997 ||| ref not printed in the sentence (AN-201: Nagy et al, 1996); conditions: cited from earlier work
Description: as §2, with “... || Recently, we developed a series of targeted cytotoxic conjugates based on analogues of peptide hormones such as luteinizing hormone-releasing hormone(LH-RH), somatostatin and BN/GRP, for which high affinity receptors are expressed on a variety of tumours ([Schally and Nagy, 1999]; [Nagy and Schally, 2001]).” for “...”

[8] = RC-3095 200 μg/mouse i.v. 15 min before AN-215 150 nmol kg^-1 days 1, 10, 17

| Molecule | IC50 ([1]; U-87MG tumour membranes, AN-215 10^-6–10^-12 M, mean±s.e., read-out: IC50, inhibition of specific 125I-[Tyr4]BN binding) [nM] | Binding affinity to BN/GRP receptor protein ([1]; U-87MG tumours) | Effect of treatment on binding characteristics of receptors for BN/GRP [2] | Inhibition of H-69 human small-cell lung carcinoma [3] | Inhibition of PC-3 human androgen-independent prostate cancer [4] | Affinity to BN receptors [5] | Tumour doubling time ([6]; 150 nmol kg^-1 i.v. days 1, 10, 17, 20 days, no pretreatment, control 4.5±0.2) [days] | Antitumour effect after BN receptor blockade ([6]; RC-3095 200 μg i.v. 15 min before AN-215 150 nmol kg^-1) | Growth inhibition after RC-3095 pretreatment [6, 8] [%] | Tumour doubling time after RC-3095 pretreatment [6, 8] [days] | Antiproliferative effect ([7]; ref Nagy et al, 1997) | Potency relative to DOX (fold) ([7]; in vitro, ref not printed in the sentence (AN-201: Nagy et al, 1996)) [times] |
| --- | --- | --- | --- | --- | --- | --- | --- | --- | --- | --- | --- | --- |
| Gln-Trp-Ala-Val-Gly-His-Leu-ψ(CH2-NH)-Leu-NH2 [AN-215] | 4 ± 0.1 | high binding affinity | did not affect the binding characteristics | effectively inhibit | effectively inhibit | high affinity | 6.6 ± 1.0 | could be blocked by pretreatment with an excess of a bombesin antagonist; also recorded: non-significant growth inhibition of U-87MG glioblastomas | 22 | 4.7 ± 02 | retains the antiproliferative effect of its cytotoxic moiety | – |
| COc1cccc2c1C(=O)c1c(O)c3c(c(O)c1C2=O)C[C@@](O)(C(=O)CO)C[C@@H]3O[C@H]1C[C@H](N2C=CCC2)[C@H](O)[C@H](C)O1 [AN-201, 2-pyrrolino-doxorubicin] | – | – | – | – | – | – | – | – | – | – | – | 1000 |
